Patent publication US20090270477A1, “POLYMORPHS OF A HYDROISOINDOLINE TACHYKININ RECEPTOR ANTAGONIST” (priority 2006, published 2009)

Assay: Relative thermodynamic stability of the two anhydrous crystalline forms (enantiotropic pair)
Type: physicochemical
Details: freebase of compound of structural formula A; Form I and Form II are enantiotropic

Row | temperatures at which the form is thermodynamically more stable | Structure (SMILES)
1 | above 72 °C | C[C@@H](O[C@H]1CC[C@@H]2CN(C3=CC(=O)CC3)C[C@H]2[C@@H]1c1ccc(F)cc1)c1cc(C(F)(F)F)cc(C(F)(F)F)c1 [Form II]
2 | below 72 °C | C[C@@H](O[C@H]1CC[C@@H]2CN(C3=CC(=O)CC3)C[C@H]2[C@@H]1c1ccc(F)cc1)c1cc(C(F)(F)F)cc(C(F)(F)F)c1 [Form I]
